Six molecules from patent US9271916B2, “Composition for reducing skin wrinkles including PDE5 inhibitor” (SK Chemicals Co., Ltd., priority 2011, dated 2016) can be followed below.

Data set [1] concerns type I procollagen production in normal human dermal fibroblasts (NHDF, cell line 7F3802). Kind of data set: Procollagen type I production in normal human dermal fibroblasts. The data set is classed as cell-based. The note with it: 48 hours, negative control 100.0±0.0%, p<0.01. On the procedure: Effects by mirodenafil hydrochloride, test compound, on production of type I collagen was evaluated with normal human dermal fibroblasts.
Cell line 7F3802 was used as a normal human dermal fibroblast (hereinafter, ‘NHDF’). Frozen NHDF was thawed and subcultured, and passages 5 to 7 were used for this test.
L-Ascorbic acid (Sigma-Aldrich Co., U.S.A.) was used as a positive control because there are lots of comparative experimental data using l-ascorbic acid. L-Ascorbic acid has been reported to be effective in acceleration of collagen production when evaluating with fibroblasts. DMSO (Dimethyl sulfoxide) was used as a diluent.
(§1) 0.01 mL of aliquot was taken from 10 mM of mirodenafil hydrochloride stock solution, and 9.99 mL of DMSO was added to the aliquot to make 10,000 nM of sample. This sample was additionally diluted to 1,000 nM of concentration right before being used. 10,000 nM and 1,000 nM of solutions were diluted 100 times with serum-free medium to […], right before being applied.
For making a positive control, 20,000 μM (3.522 mg/mL) of 1-ascorbic acid was prepared by dissolving it with serum-free medium, and then the solution was diluted to 200 μM.
Two cell culture media were used in this experiment. Complete medium consisting of FBS (fetal bovine serum), Penicillin-Streptomycin (10,000 U/mL of penicillin and 10,000 ug of streptomycin) and DMEM/F12 (dulbecco's modified eagle's medium/F12) was used during subculture before test compound was applied, and then serum-free medium consisting of Penicillin-Streptomycin and DMEM (dulbecco's modified eagle's medium) was used.
Pre-treatment (cell culture and treatment of test compound) was performed as follows: After culturing in complete medium, 400 μl of NHDF was seeded into 48-well plates (1×10^5 cells/400 μl/well), and cultured at a condition of 37° C. and 5% CO2 incubator (MCO-20AIC, Sanyo, Japan) for 24 hours. After culture was completed, the remaining media were removed from each well. 500 μl of D-PBS (D-phosphate buffered saline) was added to each well to wash wells. […]

For data set [2], the system named is matrix metalloproteinase-1 (MMP-1) expression in normal human dermal fibroblasts. Kind of data set: Inhibition of MMP-1 expression in normal human dermal fibroblasts. The note with it: NHDF, negative control 189.7±10.9%, p<0.01. The data set is classed as cell-based. On the procedure: Effects by mirodenafil hydrochloride, test compound, on inhibition of matrix metalloproteinase-1 (MMP-1) expression was evaluated with normal human dermal fibroblasts.
(−)Epigallocatechin gallate (EGCG) (Sigma-Aldrich Co., U.S.A.) was used as a positive control because there are lots of comparative experimental data using the EGCG. EGCG has been reported to be effective in inhibition of MMP-1 expression when evaluating with fibroblasts. DMSO (Dimethyl sulfoxide) was used as a diluent.
as §1
For making a positive control, 10,000 μM (4.584 mg/mL) of EGCG was prepared by dissolving it with serum-free medium, and then the solution was diluted to 10 μM (0.0046 mg/mL).
BCA protein assay kit (Lot No.: KK140637, Pierce Biotechnology Inc., USA) was used for total protein analysis, and matrix metalloproteinase-1 (MMP-1), human, biotrak ELISA system kit (Lot No.: 398061, GE Healthcare, UK) was used for MMP-1 analysis.
The contents of MMP-1 in wells to which negative control, test compound or positive control was added were divided by the content of total protein. The adjusted content of MMP-1 was used to calculate “Inhibition rate of MMP-1 expression” with the following equation. This test was repeated three times. Inhibition rate of MMP-1 expression (%)=A/B×100
A: MMP-1 amount of sample or positive control
B: MMP-1 amount of negative control
The other materials and methods which were not mentioned in detail were similar to those of Example 3.

For data set [3], the system named is UVB-induced skin wrinkles. Kind of data set: Wrinkle reduction in UVB-irradiated hairless mice. The data set is classed as in vivo. The note with it: for Wrinkle reduction (skin photographs): 10 mM (about 5%), applied twice daily for 14 days after wrinkle induction. On the procedure: An examination was made as to whether the PDE5 inhibitors can substantially reduce skin wrinkles of animal models. Hairless mice, aged 7 weeks, were irradiated with UVB (290-320 nm, 312 nm) to induce wrinkles. The compound or the control was applied to each mouse and its influence on the induced wrinkles was evaluated. More specifically, the mice were irradiated with 60 mJ/cm^2 (1 minimal […] dose (MED)) for 3 days weekly during the first and second week after wrinkling, 120 mJ/cm^2 (2 MED) for 3 days during the third week after wrinkling, 180 mJ/cm^2 (3 MED) for 3 days during the fourth week after wrinkling, 240 mJ/cm^2 (4 MED) for 3 days weekly during the fifth to eighth week after wrinkling, and 240 mJ/cm^2 (4 MED) for 5 days weekly during the ninth to fifteenth week after wrinkling. During the sixteenth and seventeenth week after wrinkling, about 0.5 ml of squalene-OOH, an oxidation product of squalene by UV irradiation, was applied once using a brush to induce deeper wrinkles. Thereafter, the compound or the control was applied to each mouse twice daily for 14 days.

Structures can show the parent of a compound that is named as a salt.

As to `CCCOc1ccc(S(=O)(=O)N2CCN(CCO)CC2)cc1-c1nc2c(CCC)cn(CC)c2c(=O)[nH]1` [mirodenafil hydrochloride], the “Synthesis rate of procollagen type I” value in data set [1] (10 nM) is listed as 149.7±12.4%; in data set [1] (100 nM), 189.8±6.4%. Besides, the “MMP-1 expression (% of control)” value is 115.8±9.1% in data set [2] (10 nM) and 97.9±8.5% in data set [2] (100 nM).

Consider (−)Epigallocatechin gallate [EGCG], for which the “MMP-1 expression (% of control)” value in data set [2] (0.0046 mg/mL (10 μM)) worked out at 102.3±18.7%. As for `CCCOc1ccc(S(=O)(=O)N2CCN(CCO)CC2)cc1-c1nc2c(CCC)cn(CC)c2c(=O)[nH]1.Cl.Cl` [mirodenafil 2HCl], the “Wrinkle reduction (skin photographs)” value in data set [3] is listed as “Wrinkle reduction was observed”. Consider `CC1=C(/C=C/C(C)=C/C=C/C(C)=C/C(=O)O)C(C)(C)CCC1` [retinoic acid], for which, in data set [3] (0.05%, topical, twice then once daily), the “Formation and peeling of cornified layers of the skin” value is “Cornified layers were formed and continuously peeled”. As to `O=C1O[C@H]([C@@H](O)CO)C(O)=C1O` [L-Ascorbic acid], the “Synthesis rate of procollagen type I” value in data set [1] (35.2 μg/mL (200 μM)) is on record as 175.7±11.5%. Consider `CCCOc1ccc(S(=O)(=O)N2CCN(CCO)CC2)cc1-c1nc2c(CCC)cn(CC)c2c(=O)[nH]1` [mirodenafil free base, mirodenafil], for which the “Wrinkle reduction (skin photographs)” value in data set [3] is “Wrinkle reduction was observed”.
